ChEMBL document CHEMBL1201862, “PubChem BioAssay data set” (2004)
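Method: 48-hour compound exposure of cells in 96-well plates, five concentrations, linear interpolation of endpoints. GI50 = concentration required for 50% inhibition of growth.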 Calls of active or inactive are those of the source. Cut-off read from the data, not from the text of the source: active = GI50 up to about 1.1 µM and inactive = higher.

Key:
Assay in all cases: NCI tumour cell line growth inhibition, 48 h
UACC-257 = system: UACC-257
KM12 = system: KM12
NCI-H522 = system: NCI-H522
HOP-92 = system: HOP-92
NCI/ADR-RES = system: NCI/ADR-RES
A498 = system: A498
K562 = system: K562
A549 = system: A549
SK-OV-3 = system: SK-OV-3
LOX IMVI = system: LOX IMVI
OVCAR-3 = system: OVCAR-3
HOP-62 = system: HOP-62
OVCAR-8 = system: OVCAR-8
MDA-N = system: MDA-N
COLO 205 = system: COLO 205
MOLT-4 = system: MOLT-4
OVCAR-4 = system: OVCAR-4
TK-10 = system: TK-10
Hs-578T = system: Hs-578T
SF-268 = system: SF-268
786-0 = system: 786-0
T47D = system: T47D
Malme-3M = system: Malme-3M
UO-31 = system: UO-31
SK-MEL-5 = system: SK-MEL-5
RPMI-8226 = system: RPMI-8226
SF-539 = system: SF-539
U-251 = system: U-251
M14 = system: M14
SN12C = system: SN12C
SW-620 = system: SW-620
DU-145 = system: DU-145
SNB-75 = system: SNB-75
HCT-15 = system: HCT-15
UACC-62 = system: UACC-62
RXF 393 = system: RXF 393
SNB-19 = system: SNB-19
SR = system: SR
HCT-116 = system: HCT-116
NCI-H226 = system: NCI-H226
SF-295 = system: SF-295
PC-3 = system: PC-3
ACHN = system: ACHN
MDA-MB-435 = system: MDA-MB-435
SK-MEL-2 = system: SK-MEL-2
CCRF-CEM = system: CCRF-CEM
NCI-H23 = system: NCI-H23
EKVX = system: EKVX
MDA-MB-231 = system: MDA-MB-231
HT-29 = system: HT-29
SK-MEL-28 = system: SK-MEL-28
NCI-H460 = system: NCI-H460
OVCAR-5 = system: OVCAR-5
HCC 2998 = system: HCC 2998
IGROV-1 = system: IGROV-1
HL-60 = system: HL-60
MCF7 = system: MCF7
BT-549 = system: BT-549
CAKI-1 = system: CAKI-1

`N#CSC/C(Cl)=C/Cl.N#CSC/C(Cl)=C\Cl` was tested, and the GI50 (UACC-257) was > 100 µM (inactive), the GI50 (KM12) was > 100 µM (inactive) and the GI50 (NCI-H522) was > 100 µM (inactive). For the same molecule, the GI50 (HOP-92) was > 100 µM (inactive), the GI50 (NCI/ADR-RES) was > 100 µM (inactive) and the GI50 (A498) was > 100 µM (inactive). The GI50 (K562) was > 100 µM (inactive), the GI50 (A549) was > 100 µM (inactive) and the GI50 (SK-OV-3) was > 100 µM (inactive). For the same molecule, the GI50 (LOX IMVI) was 20.4 µM (inactive), the GI50 (OVCAR-3) was > 100 µM (inactive) and the GI50 (HOP-62) was > 100 µM (inactive). The GI50 (OVCAR-8) was > 100 µM (inactive), the GI50 (MDA-N) was > 100 µM (inactive) and the GI50 (COLO 205) was > 100 µM (inactive). For the same molecule, the GI50 (MOLT-4) was 29.7 µM (inactive), the GI50 (OVCAR-4) was > 100 µM (inactive) and the GI50 (TK-10) was > 100 µM (inactive). For the same molecule, the GI50 (Hs-578T) was > 100 µM (inactive), the GI50 (SF-268) was > 100 µM (inactive) and the GI50 (786-0) was > 100 µM (inactive). For the same molecule, the GI50 (T47D) was > 100 µM (inactive), the GI50 (Malme-3M) was > 100 µM (inactive) and the GI50 (UO-31) was > 100 µM (inactive). For the same molecule, the GI50 (SK-MEL-5) was > 100 µM (inactive), the GI50 (RPMI-8226) was 92.3 µM (inactive) and the GI50 (SF-539) was > 100 µM (inactive). The GI50 (U-251) was > 100 µM (inactive), the GI50 (M14) was > 100 µM (inactive) and the GI50 (SN12C) was > 100 µM (inactive). For the same molecule, the GI50 (SW-620) was > 100 µM (inactive), the GI50 (DU-145) was > 100 µM (inactive) and the GI50 (SNB-75) was > 100 µM (inactive). The GI50 (HCT-15) was over 100 µM, the GI50 (UACC-62) was > 100 µM (inactive) and the GI50 (RXF 393) was > 100 µM (inactive). The GI50 (SNB-19) was > 100 µM (inactive), the GI50 (SR) was > 100 µM (inactive) and the GI50 (HCT-116) was > 100 µM (inactive). The GI50 (NCI-H226) was > 100 µM (inactive), the GI50 (SF-295) was > 100 µM (inactive) and the GI50 (PC-3) was > 100 µM (inactive). For the same molecule, the GI50 (ACHN) was > 100 µM (inactive), the GI50 (MDA-MB-435) was > 100 µM (inactive) and the GI50 (SK-MEL-2) was > 100 µM (inactive). For the same molecule, the GI50 (CCRF-CEM) was 34.8 µM (inactive), the GI50 (NCI-H23) was > 100 µM (inactive) and the GI50 (EKVX) was > 100 µM (inactive). For the same molecule, the GI50 (MDA-MB-231) was > 100 µM (inactive), the GI50 (HT-29) was > 100 µM (inactive) and the GI50 (SK-MEL-28) was > 100 µM (inactive). For the same molecule, the GI50 (NCI-H460) was > 100 µM (inactive), the GI50 (OVCAR-5) was 63.2 µM (inactive) and the GI50 (HCC 2998) was 0.069 µM (active). For the same molecule, the GI50 (IGROV-1) was > 100 µM (inactive) and the GI50 (HL-60) was 43.9 µM (inactive).

`COC(=O)C1=C(C)NC(C)=C(C(=O)OC)C1c1cccc(N=O)c1` was tested, and the GI50 (UACC-257) was 16.6 µM (inactive), the GI50 (KM12) was 16.6 µM (inactive) and the GI50 (NCI-H522) was 3.18 µM (inactive). The GI50 (MCF7) was 18.4 µM (inactive), the GI50 (HOP-92) was 7.69 µM (inactive) and the GI50 (NCI/ADR-RES) was 22.5 µM (inactive). For the same molecule, the GI50 (A498) was 35 µM (inactive), the GI50 (K562) was 4.69 µM (inactive) and the GI50 (A549) was 31.8 µM (inactive). For the same molecule, the GI50 (SK-OV-3) was 25.4 µM (inactive), the GI50 (LOX IMVI) was 17.4 µM (inactive) and the GI50 (OVCAR-3) was 15.7 µM (inactive). For the same molecule, the GI50 (HOP-62) was 21.1 µM (inactive), the GI50 (OVCAR-8) was 15 µM (inactive) and the GI50 (MDA-N) was 13.3 µM (inactive). For the same molecule, the GI50 (COLO 205) was 18.5 µM (inactive), the GI50 (MOLT-4) was 4.76 µM (inactive) and the GI50 (OVCAR-4) was 13.1 µM (inactive). The GI50 (TK-10) was 15 µM (inactive), the GI50 (SF-268) was 17 µM (inactive) and the GI50 (786-0) was 16.7 µM (inactive). The GI50 (T47D) was 11.6 µM (inactive), the GI50 (Malme-3M) was 15.4 µM (inactive) and the GI50 (UO-31) was 8.38 µM (inactive). For the same molecule, the GI50 (SK-MEL-5) was 16.3 µM (inactive), the GI50 (RPMI-8226) was 4.53 µM (inactive) and the GI50 (BT-549) was 17 µM (inactive). The GI50 (SF-539) was 19.1 µM (inactive), the GI50 (U-251) was 17 µM (inactive) and the GI50 (M14) was 13.9 µM (inactive). For the same molecule, the GI50 (SN12C) was 18.8 µM (inactive), the GI50 (SW-620) was 4.78 µM (inactive) and the GI50 (DU-145) was 15.8 µM (inactive). The GI50 (HCT-15) was 17.8 µM, the GI50 (UACC-62) was 14.3 µM (inactive) and the GI50 (RXF 393) was 13.3 µM (inactive). For the same molecule, the GI50 (SNB-19) was 75.5 µM (inactive), the GI50 (CAKI-1) was 10.6 µM (inactive) and the GI50 (SR) was 5.41 µM (inactive). The GI50 (HCT-116) was 11 µM (inactive), the GI50 (NCI-H226) was 16.3 µM (inactive) and the GI50 (SF-295) was 52.8 µM (inactive). For the same molecule, the GI50 (PC-3) was 17.8 µM (inactive), the GI50 (ACHN) was 14.5 µM (inactive) and the GI50 (MDA-MB-435) was 16.1 µM (inactive). The GI50 (SK-MEL-2) was 15.6 µM (inactive), the GI50 (CCRF-CEM) was 3.55 µM (inactive) and the GI50 (NCI-H23) was 19.5 µM (inactive). The GI50 (EKVX) was 20.1 µM (inactive), the GI50 (MDA-MB-231) was 14.4 µM (inactive) and the GI50 (HT-29) was 16.3 µM (inactive). The GI50 (SK-MEL-28) was 16.7 µM (inactive), the GI50 (NCI-H460) was 16 µM (inactive) and the GI50 (OVCAR-5) was 18 µM (inactive). The GI50 (HCC 2998) was 22.3 µM (inactive), the GI50 (IGROV-1) was 17 µM (inactive) and the GI50 (HL-60) was 3.85 µM (inactive).
